This note sets out measurements from PubChem BioAssay AID743275 (Broad Institute, 2014).

Each structure is given as a SMILES string. Inconclusive results are not listed. Activity calls are given as the source filed them.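 How the source made its calls: active means compounds cutting cell count with a fitted half-maximal dose below twice the top dose, in every run; inconclusive means runs disagree, flat partial cut, or poor curve fit; inactive means every run called inactive.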

The subject of experiment [1] is CAPAN-1 cell number, Hoechst imaging, 14 days. The experiment is described as follows: CAPAN-1 proliferation reduction by RAD52 inhibitors – cell-based, imaging, dry powder, set 2, dose response (AID 743275).
Experiment in experiment [2]: as above
The following applies: CAPAN-1 cell number, Hoechst imaging, 14 days.

What is called AC50 is the concentration giving half of the maximal activity seen. Regarding `COc1ccc(C2NCCc3c2[nH]c2ccccc32)cc1COc1ccc(F)cc1` (stereo not given), the AC50 in experiment [1] is 15.2 µM. As for `CN(C)CCCNC(=S)N(CCN(C)C)Cc1cc2cc3c(cc2[nH]c1=O)OCCO3`, the activity change, negative = inhibition in experiment [2] (at 50 µM (top of the series)) was -7.72% (inactive).

Turning to `COc1ccc2nc(NCCNC(=S)NCCCN3CCOCC3)c(C#N)cc2c1`, the activity change, negative = inhibition in experiment [2] (at 26 µM (top of the series)) is -10.2% (inactive).

For the compound `Cc1ccc2sc(N(CCCN(C)C)C(=O)c3ccc(S(=O)(=O)N(C)C4CCCCC4)cc3)nc2c1C`, in experiment [1], the half-maximal activity concentration (AC50) was 34.7 µM.

Turning to `COc1nc(NCc2ccccc2)nc(NCc2cccnc2)n1`, the activity change, negative = inhibition in experiment [2] (at 50 µM (top of the series)) was -3.86% (inactive). On the same count and under the same terms, in the case of `CN(CCCN1CCOCC1)c1cc(-c2ccc(F)cc2)nc2ccnn12` it was -17.6% (inactive). As for `Cc1cc(C)c2sc(N(CCCN(C)C)C(=O)CN3C(=O)c4ccccc4C3=O)nc2c1`, the AC50 in experiment [1] is 26 µM. Consider `CCN(CC)CCNc1nc(SC)nc2sc3c(c12)CCN(C)C3`, for which, in experiment [2] (at 50 µM (top of the series)), the activity change, negative = inhibition was 7.64% (inactive). For the compound `CCCN1CCN(CCCNC(=S)Nc2ccc3nc(N4CCN(CC)CC4)cc(C)c3c2)CC1`, the activity change, negative = inhibition in experiment [2] (at 50 µM (top of the series)) is 0.584% (inactive).

Take `COc1ccc(OC)c(Nc2nc(NCCO)c3ccccc3n2)c1`: the half-maximal activity concentration (AC50) in experiment [1] is 30.2 µM. Still for that read-out and setting: in the case of `COc1cc2ccccc2cc1C(=O)N(CCN(C)C)c1nc2c(OC)ccc(OC)c2s1` it was 33.3 µM; in that of `OCCNc1nc(Nc2ccccc2Cl)nc2ccccc12`, 23.9 µM. Still for that read-out and setting: in the case of `Cn1nc(-c2ccc(Cl)cc2)c2cc(C(=O)NCCCN3CCCCCC3)sc21` it was 23.9 µM.

With `COc1ccc(-c2nn(C)c3sc(C(=O)NCCCN4CCOCC4)cc23)cc1OC`, the activity change, negative = inhibition in experiment [2] (at 50 µM (top of the series)) is -37% (inactive).

Take `COc1ccc(OC)c(Nc2nc(NCCCO)c3ccccc3n2)c1`: the AC50 in experiment [1] is 24.6 µM. As to `CCCNc1nc(Cl)nc(NCc2cccnc2)n1`, the activity change, negative = inhibition in experiment [2] (at 50 µM (top of the series)) was 4.33% (inactive). The same measure, in the same setting: next, `c1ccc(-c2cc(N3CCC(N4CCCC4)CC3)n3nccc3n2)cc1`: 15.5% (inactive); `Cc1nccn1Cc1ccc(NC(=O)c2cccc(NC(=O)c3cccnc3)c2)cc1`: 12.8% (inactive). On the same count and under the same terms, next, `c1ccc(-c2cc(N3CCN(CCN4CCCC4)CC3)n3nccc3n2)cc1`: -9.44% (inactive). For the compound `Cc1cc(N2CCN(C)CC2)nc2ccc(NC(=S)N3CCN(c4ccc(Cl)cc4)CC3)cc12`, in experiment [2] (at 26 µM (top of the series)), the activity change, negative = inhibition was 16.1% (inactive).

Consider `Cc1cc(N2CCN(C)CC2)nc2ccc(NC(=S)NCCCN3CCc4ccccc4C3)cc12`, for which, in experiment [2] (at 50 µM (top of the series)), the activity change, negative = inhibition was 5.99% (inactive). As for `CCN1CCN(C(=S)Nc2ccc3nc(N4CCN(C)CC4)cc(C)c3c2)CC1`, in experiment [1], the concentration at half-maximal activity (AC50) is 26.7 µM. With `Cc1cc(C)c2c(c1)c1nnc(SCCN3CCCCC3)nc1n2C`, the activity change, negative = inhibition in experiment [2] (at 50 µM (top of the series)) is 6.3% (inactive).

As to `OCCNc1nc(Nc2ccccc2F)nc2ccccc12`, the activity change, negative = inhibition in experiment [2] (at 50 µM (top of the series)) is 25.7% (inactive). Take `Cc1ccc2sc(N(CCCN(C)C)C(=O)c3ccc(S(=O)(=O)N(C)Cc4ccccc4)cc3)nc2c1C`: the AC50 in experiment [1] was 20.4 µM.

On to `CN(C)c1ccc(Nc2nc(N)c3ccccc3n2)cc1`, for which the activity change, negative = inhibition in experiment [2] (at 50 µM (top of the series)) was -26.6% (inactive). With `CC1(C)CC(NC(=O)c2ccc(Cl)c(S(=O)(=O)N(Cc3ccccc3)c3ccccc3)c2)CC(C)(C)N1`, in experiment [1], the AC50 is 22.1 µM. On to `COc1ccc(-c2oc3ncnc(NCCCN4CCOCC4)c3c2-c2ccc(OC)cc2)cc1`, for which, in experiment [2] (at 50 µM (top of the series)), the activity change, negative = inhibition is 20.8% (inactive). On to `CCCCN(CC)CCCNC(=S)Nc1ccc2nc(N3CCN(C)CC3)cc(C)c2c1`, for which the AC50 in experiment [1] is 44.9 µM. On the same count and under the same terms, in the case of `CCCCN(CC)CCNC(=O)c1cc2c(-c3ccc(Cl)cc3)nn(C)c2s1` it was 12.6 µM; in that of `CCCNc1nc(NCc2cccnc2)nc(N2CCOCC2)n1`, 26.5 µM. Consider `CCN(CC)CCCN(Cc1cc2cc3c(cc2[nH]c1=O)OCO3)C(=S)NCCCN(C)C`, for which the activity change, negative = inhibition in experiment [2] (at 50 µM (top of the series)) is 15% (inactive). Consider `c1ccc(CNc2nc(NCc3ccccc3)c3ccccc3n2)cc1`, for which the concentration at half-maximal activity (AC50) in experiment [1] was 7.8 µM. Turning to `CCN(CC)CCN(C(=O)C1=COCCO1)c1nc2c(OC)ccc(OC)c2s1`, the AC50 in experiment [1] was 48.6 µM. As to `O=c1c2c(-c3ccccc3)csc2nc2c3ccccc3c(NCCN3CCOCC3)nn12`, in experiment [2] (at 50 µM (top of the series)), the activity change, negative = inhibition was -2.92% (inactive). With `CN(C)CCCNC(=S)NCC(c1ccc(Cl)cc1Cl)c1c[nH]c2ccccc12` (stereo not given), the AC50 in experiment [1] is 17.7 µM. On to `CN1CCN(CC(=O)Nc2c(C(=O)c3ccccc3)oc3ccccc23)CC1`, for which the activity change, negative = inhibition in experiment [2] (at 50 µM (top of the series)) is -11.9% (inactive).

Turning to `Cn1nc(-c2ccc(Cl)cc2)c2cc(C(=O)NCCCN3CCCC3)sc21`, the AC50 in experiment [1] was 15.8 µM. `CCNC(=O)Nc1ccc2nc(N3CCN(C)CC3)cc(C)c2c1`: in experiment [2] (at 50 µM (top of the series)), the activity change, negative = inhibition is 20.3% (inactive). On to `Cc1ccc2nc(-c3ccc(NC(=S)NC4CC(C)(C)NC(C)(C)C4)cc3)sc2c1`, for which the AC50 in experiment [1] was 23.6 µM. On to `CN1CCCN(c2cc(-c3ccccc3)nc3ccnn23)CC1`, for which the activity change, negative = inhibition in experiment [2] (at 50 µM (top of the series)) is -7.07% (inactive). On to `COc1ccc2oc(C(=O)c3ccccc3)c(NC(=O)CN3CCN(C)CC3)c2c1`, for which the half-maximal activity concentration (AC50) in experiment [1] was 38.3 µM. Consider `Cc1c(C(=O)Nc2ccc(S(=O)(=O)N(C)C3CCN(C)CC3)cc2)oc2c(Cl)cccc12`, for which the AC50 in experiment [1] is 24.1 µM. Turning to `CN(C)CCCN(C(=O)c1nc2ccccc2s1)c1nc2ccc(F)cc2s1`, the activity change, negative = inhibition in experiment [2] (at 50 µM (top of the series)) was -18.3% (inactive). The same measure, in the same setting: in the case of `Cc1ccc(C(=O)c2oc3ccccc3c2NC(=O)CN2CCN(C)CC2)cc1` it was 9.01% (inactive). As for `C=C1Nc2cc(-c3ccc(Cl)cc3)nn2C(NCCN(C)C)=C1C`, in experiment [1], the AC50 was 31.6 µM. Still for that read-out and setting: in the case of `CCN1CCN(c2cc(C)c3cc(NC(=O)c4ccccn4)ccc3n2)CC1` it was 40.8 µM. Same read-out and setting: next, `Cc1ccc(-c2nc(C(=O)NCCCN3CCOCC3)cc3c2[nH]c2ccccc23)cc1`: 30.8 µM. On the same count and under the same terms, in the case of `CCN(CC)CCNC(=S)Nc1ccc2nc(N3CCN(CC)CC3)cc(C)c2c1` it was 31.9 µM. On to `CCCN(CCC)CCCNC(=S)Nc1ccc2nc(N3CCN(CC)CC3)cc(C)c2c1`, for which, in experiment [2] (at 50 µM (top of the series)), the activity change, negative = inhibition was -17.4% (inactive). `CN1CCN(c2ccc(NC(=O)c3cc(S(N)(=O)=O)ccc3N3CCOCC3)cc2)CC1`: in experiment [2] (at 50 µM (top of the series)), the activity change, negative = inhibition is 4.65% (inactive).

Turning to `COc1ccccc1Nc1nc(NCCO)c2ccccc2n1`, the activity change, negative = inhibition in experiment [2] (at 50 µM (top of the series)) was -17.4% (inactive). Consider `CN(C)CCCN(C(=O)c1ccc(C(=O)c2ccccc2)cc1)c1nc2cc3c(cc2s1)OCO3`, for which the AC50 in experiment [1] is 30 µM. Still for that read-out and setting: next, `CN1CCN(CCCNC(=O)c2cc3c(-c4ccc(Cl)cc4)nn(C)c3s2)CC1`: 7.4 µM. For the compound `Cc1cc(N2CCN(C)CC2)nc2ccc(NC(=S)NCCCN3CCN(C)CC3)cc12`, in experiment [2] (at 50 µM (top of the series)), the activity change, negative = inhibition was 14.2% (inactive).
